From patent US12414911B2, “Topical compositions and methods of use” (priority 2012, dated 2025) come the findings set out here.

One assay has as its system E. Coli. In words: Agar-solid Diffusion Method, inhibition zone. The settings on record: Escherichia coli. In kind it is cell-based.
Another assay relates to Staph Aureus. Nature of the assay: Agar-solid Diffusion Method, inhibition zone. It is filed as cell-based. To be noted: Staphylococcus aureus.
The next assay relates to T. Rubrum. In words: Agar-solid Diffusion Method, inhibition zone. It is filed as cell-based. To be noted: Trichophyton rubrum.
The subject of the next assay is P. Acnes. Nature of the assay: Agar-solid Diffusion Method, inhibition zone. It is filed as cell-based. To be noted: Cutibacterium acnes.
In the next assay the test system is C. Albicans. Nature of the assay: Agar-solid Diffusion Method, inhibition zone. In kind it is cell-based. To be noted: Candida albicans.
Assay [1] has as its system LTB4 release from macrophages. Nature of the assay: Inhibition of LTB4 release from stimulated macrophage cell line (radioimmunoassay). In kind it is cell-based. The settings on record: NDGA 25 uM, positive control. The method, then:
MFSO and the MFB skin extract have Anti-inflammatory Activity.
MFSO and the MFB skin extract were dissolved in DMSO and added to cell culture medium at a stock concentration for use in these in vitro experiments. The ability of MFSO to function as an inhibitor of LTB4 release was evaluated using a macrophage cell line followed by the addition of calcium iontophore for stimulation of LTB4 and the use of a radioimmunoassay (Amersham) for LTB4 detection as previously described (Garrido G, González D, Lemus Y, Garcia D, Lodeiro L, Quintero G, Delporte C, Núñez-Sellés A J, Delgado R. In vivo and in vitro anti-inflammatory activity of Mangifera indica L. extract (VIMANG). Pharmacol Res. 2004 August; 50 (2):143-9). NDGA (25 uM) is a known positive control that inhibits LTB4 release and the vehicle control consisted of DMSO in culture medium with no MFSO.

The nature of assay [2]: UVB SPF activity of formulations. In kind it is in vivo, human. To be noted: Octinoxate 3% alone. The method, then:
Formulations containing MFSO and octyl methoxycinnamate (Octinoxate), alone and in combination, were prepared without changing the vehicle base and tested for UVB SPF activity (2 subjects).
To evaluate for SPF boosting effects of MFSO, a concentration of Octinoxate was selected that gave SPF values that would allow for its efficient absorption and avoid the saturation effect that occurs when higher concentrations of sunscreens are used.

Another assay deals with Normal human spermatozoa. Nature of the assay: Spermicidal activity (Sander-Cramer assay). In kind it is cell-based. Also on record: key: +: Mobile; −: Immobile; ±: 90% lost mobility. The settings on record: 1% concentration. From the text:
Normal human spermatozoa were used to assess the spermicidal activity (Sander-Cramer assay) of MFSO as described (Benhong Z., Zhenpeng Q, Gang L, Chun L, Zhang J. Spermicidal and antigonococcal effects of tannins from pomegranate rind. Journal of Medicinal Plants Research 2012 February; 6 (7); 1334-1339). Nonoxynol-9 was used as a positive reference standard and semen added to physiological saline was used as the negative control. Semen samples were donated by 3 healthy fertile men. The minimum MFSO concentration that caused 100% immobilization of sperm within 20 seconds was considered to be the minimal effective concentration (MEC).

`O=C(N[C@H](CO)[C@H](O)c1ccc([N+](=O)[O-])cc1)C(Cl)Cl` [Chloramphenicol]: the zone of inhibition at 30 µM in the assay on E. Coli (30 uM) was 0 mm; in the assay on Staph Aureus (30 uM), 25 mm; with T. Rubrum (30 uM), 0 mm; with P. Acnes (30 uM), 25 mm; with C. Albicans (30 uM), 0 mm.

`O=C(O)c1cn(C2CC2)c2cc(N3CCNCC3)c(F)cc2c1=O` [Ciprofloxacin]: the zone of inhibition at 10 µM amounted to 25 mm in the assay with E. Coli (10 uM); 25 mm in the assay with Staph Aureus (10 uM); 0 mm with T. Rubrum (10 uM); 22 mm in the assay on P. Acnes (10 uM); 0 mm in the assay on C. Albicans (10 uM).

As to `CC(=O)N1CCN(c2ccc(OCC3COC(Cn4ccnc4)(c4ccc(Cl)cc4Cl)O3)cc2)CC1` (stereo not shown) [Ketoconazole], the zone of inhibition at 1000 µM in the assay with E. Coli (read-out: Inhibition Zone) is 0 mm; with Staph Aureus (1 mM) it was 0 mm; in the assay with T. Rubrum (1 mM), 25 mm; in the assay on P. Acnes (1 mM) it was 0 mm; with C. Albicans (1 mM) it was 25 mm.

In the case of `CC(Cc1ccc(O)c(O)c1)C(C)Cc1ccc(O)c(O)c1` (stereo not shown) [NDGA], the “inhibition of LTB4 release” value in assay [1] is reported as 98%.

For the compound `CCCCC(CC)COC(=O)C=Cc1ccc(OC)cc1` (stereo not shown) [Octinoxate, octyl methoxycinnamate], the SPF in assay [2] was 3.

For the compound Nonoxynol-9, the “Sperm Motility” value with Normal human spermatozoa (action time 20 seconds) and in the assay on Normal human spermatozoa (action time 60 seconds) was “−” throughout.
